Test results: patent US12527869B2, “Stable microspheres, method off abrication and use thereof” (B. G. NEGEV TECHNOLOGIES AND APPLICATIONS LTD., AT …, priority 2018, dated 2026)
Values after ≈ are worked out from the molar mass of the structure shown.

Key:
[1] = cited from earlier work
[2] = cited from earlier work; for Ostwald coefficient (×10^6): gas solubility
[3] = In vitro cavitation measurement by passive cavitation detection (PCD); settings: C3F8; 499 KPa; about 6×10^7 MBs or 350 μl free gas
Experimental: Lyophilized microbubbles prepared as described in Example 1 herein were weighed and inserted into a headspace vial, and the vial was sealed by a screw cap with 1.3 mm silicone septum. Empty 50 ml syringe, 10 ml syringe filled with the desired gas and a 27 G needle, were connected to a 3 ways stopcock. The air inside the vail was drawn using the 50 ml syringe to form a vacuum, then the desired gas in the 10 ml syringe was injected into the vial. The MBs were dispersed with the desired volume (3 ml-7 ml) of degassed water, which was injected with an additional syringe and needle (23 G) through the septum cap, to prevent gas leakage. […]
Acoustic absorbing material (E in FIG. 8) was located at the top of the chamber to prevent ultrasound reflection, and a receiver (hydrophone manufactured by InSightec) was placed at an angle of […] to the direction of wave propagation (F in FIG. 8). […] These variations were recorded by the same digital pico-oscilloscope, and the data was analyzed using MATLAB software. […]
Between measurements, it was necessary to degas the water in the system to ensure that the measured cavitation was caused by the activity of microbubbles examined in the specific experiment, and not as a result of existing gas bubbles in water, or microbubbles from a previous experiment, which remained in the system. […]
The data were analyzed using MATLAB software. […]

Row | Structure (SMILES) | water solubility [1] [mg/mL] | Ostwald coefficient (×10^6) [2] | Diffusivity coefficient in water [2] | cavitation dose (CD) by inner core structure, compared with hollow single-core microbubbles [3]
1 | CCOC(C)=O [ethyl acetate] | 90 |  |  | 
2 | FS(F)(F)(F)(F)F [SF6, sulfur hexafluoride] |  | 5400 ×10^6 | 12 m^2s^−1 (×10^10) | 
3 | ClCCl [DCM, dichloromethane] | 20 (≈ 235 mM) |  |  | 
4 | FC(F)(F)C(F)(F)C(F)(F)C(F)(F)F [Synthesis C4F10, perfluorobutane] |  | 202 ×10^6 | 6.9 m^2s^−1 (×10^10) | 
5 | FC(F)(F)C(F)(F)C(F)(F)F [Synthesis C3F8, perfluoropropane] |  | 520 ×10^6 | 7.45 m^2s^−1 (×10^10) | very low
